{"source": "PubChem BioAssay AID1259407", "about": "(Chemical Carcinogenesis Research Information System (CCRIS), 2018)", "test_system": "CCRIS mutagenicity, Ames/micronucleus/aberration tests", "experiment": "CCRIS mutagenicity studies", "key": {"[1]": {"details": "Test System: AMES SALMONELLA TYPHIMURIUM, Strain/Indicator: TA98, Metabolic Activation: NONE, Method: STANDARD PLATE"}, "[2]": {"details": "Test System: AMES SALMONELLA TYPHIMURIUM, Strain/Indicator: TA100, Metabolic Activation: NONE, Method: STANDARD PLATE"}, "[3]": {"details": "Test System: AMES SALMONELLA TYPHIMURIUM, Strain/Indicator: TA1535, Metabolic Activation: NONE, Method: STANDARD PLATE"}, "[4]": {"details": "Test System: AMES SALMONELLA TYPHIMURIUM, Strain/Indicator: TA1537, Metabolic Activation: NONE, Method: STANDARD PLATE"}}, "note": "Active and inactive are the calls of the source. The rule behind the calls is not given here.", "data": [{"compound": "CC(C)=CC1C(C(=O)OCc2cccc(Oc3ccccc3)c2)C1(C)C", "note": "(configuration not stated)", "values": [{"measurement": "mutagenic call", "setting": "Test System: AMES SALMONELLA TYPHIMURIUM, Strain/Indicator: TA98", "value": "inactive; negative"}, {"measurement": "mutagenic call", "setting": "Test System: AMES SALMONELLA TYPHIMURIUM, Strain/Indicator: TA98, Metabolic Activation: NONE", "value": "inactive; negative"}, {"measurement": "mutagenic call", "setting": "[1]", "value": "inactive; negative"}, {"measurement": "mutagenic call", "setting": "Test System: AMES SALMONELLA TYPHIMURIUM, Strain/Indicator: TA98, Metabolic Activation: RAT, LIVER, S-9, AROCLOR 1254, Method: STANDARD PLATE", "value": "inactive; negative"}, {"measurement": "mutagenic call", "setting": "Test System: AMES SALMONELLA TYPHIMURIUM, Strain/Indicator: TA100", "value": "active; positive"}, {"measurement": "mutagenic call", "setting": "Test System: AMES SALMONELLA TYPHIMURIUM, Strain/Indicator: TA100, Metabolic Activation: NONE", "value": "active; positive"}, {"measurement": "mutagenic call", "setting": "[2]", "value": "inactive; negative"}, {"measurement": "mutagenic call", "setting": "Test System: AMES SALMONELLA TYPHIMURIUM, Strain/Indicator: TA100, Metabolic Activation: RAT, LIVER, S-9, AROCLOR 1254, Method: STANDARD PLATE", "value": "inactive; negative"}, {"measurement": "mutagenic call", "setting": "[3]", "value": "inactive; negative"}, {"measurement": "mutagenic call", "setting": "Test System: AMES SALMONELLA TYPHIMURIUM, Strain/Indicator: TA1535, Metabolic Activation: RAT, LIVER, S-9, AROCLOR 1254, Method: STANDARD PLATE", "value": "inactive; negative"}, {"measurement": "mutagenic call", "setting": "[4]", "value": "inactive; negative"}, {"measurement": "mutagenic call", "setting": "Test System: AMES SALMONELLA TYPHIMURIUM, Strain/Indicator: TA1537, Metabolic Activation: RAT, LIVER, S-9, AROCLOR 1254, Method: STANDARD PLATE", "value": "inactive; negative"}, {"measurement": "mutagenic call", "setting": "Test System: E. COLI, Strain/Indicator: WP2, Metabolic Activation: NONE, Method: STANDARD PLATE", "value": "inactive; negative"}, {"measurement": "mutagenic call", "setting": "Test System: E. COLI, Strain/Indicator: WP2, Metabolic Activation: RAT, LIVER, S-9, AROCLOR 1254, Method: STANDARD PLATE", "value": "inactive; negative"}]}, {"compound": "O=C(O)C(Br)(Br)Br", "values": [{"measurement": "mutagenic call", "setting": "Test System: AMES SALMONELLA TYPHIMURIUM, Strain/Indicator: RSJ100, Metabolic Activation: NONE, Method: PREINCUBATION", "value": "inactive; negative"}, {"measurement": "mutagenic call", "setting": "Test System: AMES SALMONELLA TYPHIMURIUM, Strain/Indicator: RSJ100, Metabolic Activation: RAT LIVER S-9, Method: PREINCUBATION", "value": "inactive; negative"}, {"measurement": "mutagenic call", "setting": "Test System: AMES SALMONELLA TYPHIMURIUM, Strain/Indicator: TA98, Metabolic Activation: NONE, Method: PREINCUBATION", "value": "inactive; negative"}, {"measurement": "mutagenic call", "setting": "Test System: AMES SALMONELLA TYPHIMURIUM, Strain/Indicator: TA98, Metabolic Activation: RAT LIVER S-9, Method: PREINCUBATION", "value": "inactive; negative"}, {"measurement": "mutagenic call", "setting": "Test System: AMES SALMONELLA TYPHIMURIUM, Strain/Indicator: TA100, Metabolic Activation: NONE, Method: FLUCTUATION TEST", "value": "active; positive"}, {"measurement": "mutagenic call", "setting": "Test System: AMES SALMONELLA TYPHIMURIUM, Strain/Indicator: TA100, Metabolic Activation: NONE, Method: PREINCUBATION", "value": "inactive; negative"}, {"measurement": "mutagenic call", "setting": "Test System: AMES SALMONELLA TYPHIMURIUM, Strain/Indicator: TA100, Metabolic Activation: RAT LIVER S-9, Method: PREINCUBATION", "value": "inactive; negative"}, {"measurement": "mutagenic call", "setting": "Test System: AMES SALMONELLA TYPHIMURIUM, Strain/Indicator: TA100, Metabolic Activation: RAT, LIVER, S-9, AROCLOR 1254, Method: FLUCTUATION TEST", "value": "active; positive"}]}, {"compound": "CCc1cccc2c3c([nH]c12)C(C)(CC)OCC3", "note": "(configuration not stated)", "values": [{"measurement": "mutagenic call", "setting": "[1]", "value": "inactive; negative"}, {"measurement": "mutagenic call", "setting": "Test System: AMES SALMONELLA TYPHIMURIUM, Strain/Indicator: TA98, Metabolic Activation: RAT, LIVER, S-9, Method: STANDARD PLATE", "value": "inactive; negative"}, {"measurement": "mutagenic call", "setting": "[2]", "value": "inactive; negative"}, {"measurement": "mutagenic call", "setting": "Test System: AMES SALMONELLA TYPHIMURIUM, Strain/Indicator: TA100, Metabolic Activation: RAT, LIVER, S-9, Method: STANDARD PLATE", "value": "inactive; negative"}, {"measurement": "mutagenic call", "setting": "[3]", "value": "inactive; negative"}, {"measurement": "mutagenic call", "setting": "Test System: AMES SALMONELLA TYPHIMURIUM, Strain/Indicator: TA1535, Metabolic Activation: RAT, LIVER, S-9, Method: STANDARD PLATE", "value": "inactive; negative"}, {"measurement": "mutagenic call", "setting": "[4]", "value": "inactive; negative"}, {"measurement": "mutagenic call", "setting": "Test System: AMES SALMONELLA TYPHIMURIUM, Strain/Indicator: TA1537, Metabolic Activation: RAT, LIVER, S-9, Method: STANDARD PLATE", "value": "inactive; negative"}, {"measurement": "mutagenic call", "setting": "Test System: E. COLI, Strain/Indicator: WP2 UVRA, Metabolic Activation: NONE, Method: STANDARD PLATE", "value": "inactive; negative"}, {"measurement": "mutagenic call", "setting": "Test System: E. COLI, Strain/Indicator: WP2 UVRA, Metabolic Activation: RAT, LIVER, S-9, Method: STANDARD PLATE", "value": "inactive; negative"}]}]}
